Laboratory results published in patent US20090062150A1, “COMPOSITIONS AND METHODS FOR REGULATING INTRAMEMBRANE PROTEASES” (priority 2006, published 2009).

What was measured:
[1] = target: T1, truncated GlpG transmembrane core domain (Escherichia coli, UniProt P09391); conditions: qualitative statement, no data shown; cited from earlier work
T1 construct: The transmembrane core domain of GlpG (residues 87-276) was purified as described previously; made in house

[2] = test system: rhomboid protease; conditions: qualitative statement; cited from earlier work
[3] = target: T1, truncated GlpG transmembrane core domain; experiment: In vitro protease activity assay of GlpG core domain; assay type: biochemical, E. coli; conditions: for inhibition of GlpG by other detergents: wide range of concentrations up to several times their CMCs, data not shown
Procedure: Structural characterization of E. coli rhomboid protease, GlpG, was carried out using an N-terminally truncated GlpG transmembrane core domain (residues 87-276). In vitro characterization of the enzymatic activity of the truncated GlpG was reconstituted to validate the use of the GlpG core domain for crystallographic studies was carried out using two separate assays. Proteolytic activity of purified truncated GlpG core domain on an artificial protein substrate in detergent micelles was analyzed at 37° C. […] Proteolytic activity of purified truncated GlpG core domain was also compared with full length GlpG using C100-Spitz-Flag as substrate.
Combinatorial library technology provides an efficient way of testing a potentially vast number of different substances for their ability to modulate the activity of a rhomboid protease. In some embodiments, test substances may be screened for their ability to interact with the rhomboid protease in an enzymatic assay. For example, in one such enzymatic assay an artificial protein substrate, such as, for example, a membrane: associated protein, such as, CED-4, or C100-Spitz-Flag may be contacted with a rhomboid protease, such as GlpG. Cleavage products may then be analyzed by, for example, sodium dodecyl-sulfate polyacrylamide gel electrophoresis (SDS-PAGE). A test substance may be added to such an enzymatic, assay as a separate component, and modulation of the enzymatic activity of the rhomboid protease may be apparent by a reduction or enhancement of the amount or type of cleavage product. The modulation of activity may be indicative of binding of the test substance to the rhomboid protease.
The proteolytic activity of GlpG was examined as described by Wu et al.

T1 sequence (P09391 87-276): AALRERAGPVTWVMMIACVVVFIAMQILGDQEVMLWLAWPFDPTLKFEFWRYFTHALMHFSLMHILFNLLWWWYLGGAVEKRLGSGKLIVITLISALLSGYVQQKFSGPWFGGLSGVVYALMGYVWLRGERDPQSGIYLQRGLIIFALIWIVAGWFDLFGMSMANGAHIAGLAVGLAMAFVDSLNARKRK

| SMILES | inhibition of rhomboid activity [2] | specificity for rhomboid [2] | inhibition of GlpG by other detergents [3] | also measured |
| --- | --- | --- | --- | --- |
| O=c1oc(Cl)c(Cl)c2ccccc12 [DCI, Dichloroisocoumarin] | inhibit rhomboid activity | lack specificity |  | inhibition of GlpG [1]: relatively potent inhibition |
| CCCCCCCCOCCOCCOCCOCCO [C8E4, tetraethyleneglycol monooctyl ether] |  |  |  | inhibition of enzymatic activity on artificial substrate ([3]; at concentrations above its critical micelle concentration (CMC), artificial substrate, FIG. 4A left panel): inhibit enzymatic activity; inhibition of proteolysis of C100-Spitz-Flag ([3]; substrate C100-Spitz-Flag, FIG. 4A right panel): inhibition is also observed |
| Cc1ccc(S(=O)(=O)N[C@@H](Cc2ccccc2)C(=O)CCl)cc1 [TPCK] | inhibit rhomboid activity | lack specificity |  |  |
| CCCCCCCCCO[C@@H]1O[C@H](CO)[C@@H](O)[C@H](O)[C@H]1O [nonyl glucoside] |  |  | no inhibition |  |
| CCCCCCCCCCCC[N+](C)(C)[O-] [LDAO] |  |  | no inhibition |  |
